Where two headings read alike, the source gives them in different places.
Columns and labels:
[1] = biological target: GSK3b (GST-full length GSK3b) (Homo sapiens (Human), UniProt P49841); experiment: GSK3b TR-FRET kinase assay; type: biochemical
In short: (§1)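 Compound was preincubated 30 min with 1 nM GST-GSK3 enzyme. Reaction ran 100 min at ambient temperature in Tris pH 7.5/MgCl2 with 200 nM biotinylated pS645-glycogen synthase 631-650 peptide and ATP (4 μM GSK3α, 2 μM GSK3b, or 1 mM). The EDTA-stopped reaction was read by TR-FRET (Tb-anti-pSer641/streptavidin-d2), and IC50s were fitted.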

[2] = biological target: GSK3α (GST-full length GSK3α) (Homo sapiens (Human), UniProt P49840); experiment: GSK3α TR-FRET kinase assay; type: biochemical
In short: as §1

[3] = 1 nM GSK3b, 2 μM ATP, 30 minute preincubation, geometric mean, read-out: GSK3-B TR-FRET BIOCHEMICAL (TR-FRET), GMean, IC50
[4] = read-out: GSK3-B (TR-FRET 1 mM ATP), GMean, IC50, 1 mM ATP, geometric mean
[5] = 1 nM GSK3α, 4 μM ATP, 30 minute preincubation, geometric mean, read-out: GSK3-A TR-FRET BIOCHEMICAL (TR-FRET), GMean, IC50
[6] = read-out: GSK3-A (TR-FRET 1 mM ATP), GMean, IC50, 1 mM ATP, geometric mean
[7] = 1 nM GSK3b, 2 μM ATP, 30 minute preincubation, Table 16, read-out: GSK3-B TR-FRET BIOCHEMICAL (TR-FRET), IC50
[8] = 1 nM GSK3α, 4 μM ATP, 30 minute preincubation, Table 16, read-out: GSK3-A TR-FRET BIOCHEMICAL (TR-FRET), IC50
[9] = 1 nM GSK3b, 2 μM ATP, 30 minute preincubation, Table 16, read-out: GSK3-B TR-FRET BIOCHEMICAL (TR-FRET)
[10] = 1 nM GSK3α, 4 μM ATP, 30 minute preincubation, Table 16, read-out: GSK3-A TR-FRET BIOCHEMICAL (TR-FRET)
[11] = 1 nM GSK3b, 2 μM ATP, 30 minute preincubation, read-out: GSK3-B TR-FRET BIOCHEMICAL (TR-FRET), IC50
[12] = 1 nM GSK3α, 4 μM ATP, 30 minute preincubation, read-out: GSK3-A TR-FRET BIOCHEMICAL (TR-FRET), IC50
[13] = GSK3-B (TR-FRET 1 mM ATP), GMean, IC50, 1 mM ATP, geometric mean
[14] = GSK3-A (TR-FRET 1 mM ATP), GMean, IC50, 1 mM ATP, geometric mean

Sequence of GSK3α (GST-full length GSK3α) (P49840 whole entry): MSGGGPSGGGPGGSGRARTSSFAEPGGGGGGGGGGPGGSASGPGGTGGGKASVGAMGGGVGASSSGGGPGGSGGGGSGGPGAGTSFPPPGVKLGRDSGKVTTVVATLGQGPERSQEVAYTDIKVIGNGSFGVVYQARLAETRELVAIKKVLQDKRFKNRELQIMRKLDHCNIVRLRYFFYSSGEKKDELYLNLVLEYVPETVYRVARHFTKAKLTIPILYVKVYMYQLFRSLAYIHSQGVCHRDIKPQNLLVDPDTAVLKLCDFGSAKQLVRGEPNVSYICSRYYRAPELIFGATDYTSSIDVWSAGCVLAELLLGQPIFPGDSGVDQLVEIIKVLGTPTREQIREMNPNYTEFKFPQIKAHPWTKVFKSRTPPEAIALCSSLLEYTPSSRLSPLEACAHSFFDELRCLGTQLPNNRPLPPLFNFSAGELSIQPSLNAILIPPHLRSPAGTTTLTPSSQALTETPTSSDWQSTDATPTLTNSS
Sequence of GSK3b (GST-full length GSK3b) (P49841 whole entry): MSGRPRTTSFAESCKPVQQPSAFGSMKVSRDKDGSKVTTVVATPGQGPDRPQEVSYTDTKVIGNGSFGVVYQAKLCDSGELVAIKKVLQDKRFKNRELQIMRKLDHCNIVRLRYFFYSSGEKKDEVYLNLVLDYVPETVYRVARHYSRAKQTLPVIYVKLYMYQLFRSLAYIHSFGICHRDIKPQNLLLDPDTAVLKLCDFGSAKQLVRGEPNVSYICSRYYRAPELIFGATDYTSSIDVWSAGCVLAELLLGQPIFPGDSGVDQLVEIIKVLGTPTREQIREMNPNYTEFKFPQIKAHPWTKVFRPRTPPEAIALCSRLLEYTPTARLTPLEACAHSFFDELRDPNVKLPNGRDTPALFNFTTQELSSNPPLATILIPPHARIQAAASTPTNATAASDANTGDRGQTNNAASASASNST

Row | SMILES | IC50 [1, 3] [µM] | IC50 [2, 5] [µM] | also measured
1 | CC[C@@]1(c2cccc(C(F)F)c2)C2=C(CC(C)(C)CC2=O)Nc2n[nH]cc21 [Compound 826717] | ≤ 0.1 | ≤ 0.1 | IC50 [1, 4]: 1 to 5 µM; IC50 [2, 6]: 0.1 to 1 µM
2 | CCC1(c2cccc(S(C)(=O)=O)c2)C2=C(CC(C)(C)CC2=O)Nc2n[nH]cc21 (centres unmarked) [Compound 826718] |  |  | IC50 [1, 4]: 0.1 to 1 µM; IC50 [2, 6]: ≤ 0.1 µM
3 | CC[C@]1(c2cccc(S(C)(=O)=O)c2)C2=C(CC(C)(C)CC2=O)Nc2n[nH]cc21 [Compound 826719] | > 5 | 1 to 5 | 
4 | CC(=O)N1CCC2(C1)C1=C(CC(C)(C)CC1=O)Nc1n[nH]cc12 (centres unmarked) [Compound 826763] |  |  | IC50 [1, 7]: 1 to 5 µM; IC50 [2, 8]: 0.1 to 1 µM
5 | CC1CCCC12C1=C(CC(C)(C)CC1=O)Nc1n[nH]cc12 (centres unmarked) [Compound 826765] |  |  | IC50 [1, 9]: 1 to 5 µM; IC50 [2, 10]: 0.1 to 1 µM
6 | CC[C@]1(c2ccccc2)C2=C(CC(C)(C)[C@@H](F)C2=O)Nc2n[nH]cc21 [Compound 826766] | 0.1 to 1 | 0.1 to 1 | 
7 | CC[C@]1(c2ccccc2)C2=C(CC(C)(C)[C@H](F)C2=O)Nc2n[nH]cc21 [Compound 826767] | > 5 | > 5 | 
8 | CC[C@@]1(c2ccccc2)C2=C(CC(C)(C)[C@@H](F)C2=O)Nc2n[nH]cc21 [Compound 826768] | 0.1 to 1 | ≤ 0.1 | 
9 | CC[C@@]1(c2ccccc2)C2=C(CC(C)(C)[C@H](F)C2=O)Nc2n[nH]cc21 [Compound 826769] | > 5 | > 5 | 
10 | CCC1(c2cccc(C(F)(F)F)c2)C2=C(CC(C)(C)N(C)C2=O)Nc2n[nH]cc21 (centres unmarked) [Compound 826790] |  |  | IC50 [1, 11]: ≤ 0.1 µM; IC50 [1, 4]: 1 to 5 µM; IC50 [2, 12]: ≤ 0.1 µM; IC50 [2, 6]: 0.1 to 1 µM
11 | CCC1(c2cccc(C(F)(F)F)c2)C2=C(CC(C)(C)N(C)C2=O)Nc2n[nH]cc21 (centres unmarked) [Compound 826791] |  |  | IC50 [1, 11]: 1 to 5 µM; IC50 [2, 12]: 0.1 to 1 µM
12 | CCC1(c2cccc(Br)c2)C2=C(CC(C)CC2=O)Nc2n[nH]c(C(F)(F)F)c21 (centres unmarked) [Compound 828849] | 0.1 to 1 | 0.1 to 1 | 
13 | CCC1(c2ccccc2)C2=C(CCC(C)(C)C2=O)Nc2n[nH]cc21 (centres unmarked) [Compound 835310] | 1 to 5 | 0.1 to 1 | 
14 | CCC1(c2cccc(Br)c2)C2=C(CC(C)(C)C(F)C2=O)Nc2n[nH]cc21 (centres unmarked) [Compound 835312] | > 5 | > 5 | 
15 | CC[C@]1(c2cccc(Br)c2)C2=C(CC(C)(C)[C@@H](F)C2=O)Nc2n[nH]cc21 [Compound 835313] | > 5 | > 5 | 
16 | CCC1(c2cccc(Br)c2)C2=C(CC(C)(C)C(F)C2=O)Nc2n[nH]cc21 (centres unmarked) [Compound 835314] | 0.1 to 1 | ≤ 0.1 | 
17 | CCC1(c2cccc(Br)c2)C2=C(CC(C)(C)C(F)C2=O)Nc2n[nH]cc21 (centres unmarked) [Compound 835315] | ≤ 0.1 | ≤ 0.1 | IC50 [1, 4]: 1 to 5 µM; IC50 [2, 6]: 0.1 to 1 µM
18 | CCC1(c2cccc(-c3ccnc(C)c3)c2)C2=C(CC(C)(C)CC2=O)Nc2n[nH]cc21 (centres unmarked) [Compound 840857] | 0.1 to 1 | ≤ 0.1 | 
19 | CCC1(COC)C2=C(CC(C)(C)CC2=O)Nc2n[nH]cc21 (centres unmarked) [Compound 841866] |  |  | IC50 [1, 7]: > 5 µM; IC50 [2, 8]: > 5 µM
20 | CN1CCC2(C1)C1=C(CC(C)(C)CC1=O)Nc1n[nH]cc12 (centres unmarked) [Compound 841867] |  |  | IC50 [1, 7]: > 5 µM; IC50 [2, 8]: > 5 µM
21 | CCC1(c2cccc(N(C)c3ccncc3)c2)C2=C(CC(C)(C)CC2=O)Nc2n[nH]cc21 (centres unmarked) [Compound 853910] | 1 to 5 | 0.1 to 1 | 
22 | CCC1(c2cccc(-n3ccnc3)c2)C2=C(CC(C)(C)CC2=O)Nc2n[nH]cc21 (centres unmarked) [Compound 854926] | 0.1 to 1 | ≤ 0.1 | 
23 | CC1(C)CC(=O)C2=C(C1)Nc1n[nH]c(CCC(F)(F)F)c1C2(C)c1ccccc1 (centres unmarked) [Compound 856948] | > 5 | > 5 | 
24 | CC[C@@]1(c2cccc(C(F)(F)F)c2)C2=C(CCN(C(C)C)C2=O)Nc2n[nH]cc21 [Compound 857336] |  |  | IC50 [1, 11]: 0.1 to 1 µM; IC50 [2, 12]: ≤ 0.1 µM
25 | CC[C@]1(c2cccc(C(F)(F)F)c2)C2=C(CCN(C(C)C)C2=O)Nc2n[nH]cc21 [Compound 857362] |  |  | IC50 [1, 11]: > 5 µM; IC50 [2, 12]: > 5 µM
26 | CCC1(c2ccccc2)C2=C(Nc3n[nH]cc31)C1CCC1C2=O (centres unmarked) [Compound 861716] |  |  | IC50 [1, 7]: > 5 µM; IC50 [2, 8]: 1 to 5 µM

Row | SMILES | IC50 [1, 3] [µM] | IC50 [2, 5] [µM] | also measured
27 | CCC1(c2ccccc2)C2=C(CSC(C)(C)C2=O)Nc2n[nH]cc21 (centres unmarked) [Compound 862028] |  |  | IC50 [1, 11]: 1 to 5 µM; IC50 [2, 12]: 0.1 to 1 µM
28 | CCC1(c2cccc(-c3ccnc(C)c3)c2)C2=C(CC(C)(C)CC2=O)Nc2n[nH]cc21 (centres unmarked) [Compound 865170] | > 5 | 1 to 5 | 
29 | CCC1(c2cccc(N3CCCC3=O)c2)C2=C(CC(C)(C)CC2=O)Nc2n[nH]cc21 (centres unmarked) [Compound 865171] | 0.1 to 1 | ≤ 0.1 | 
30 | CC1(C)CC(=O)C2=C(C1)Nc1n[nH]cc1C21CCC(C(F)(F)F)CC1 (centres unmarked) [Compound 865193] |  |  | IC50 [1, 9]: ≤ 0.1 µM; IC50 [1, 13]: 1 to 5 µM; IC50 [2, 10]: ≤ 0.1 µM; IC50 [2, 14]: 0.1 to 1 µM
31 | CCC1(c2cccc(CN(C)C(C)=O)c2)C2=C(CC(C)(C)CC2=O)Nc2n[nH]cc21 (centres unmarked) [Compound 865194] | 1 to 5 | 0.1 to 1 | 
32 | CCC1(c2cccc(CN(C)C(=O)C(C)C)c2)C2=C(CC(C)(C)CC2=O)Nc2n[nH]cc21 (centres unmarked) [Compound 865195] | > 5 | 0.1 to 1 | 
33 | CCC1(c2cccc(CN(C)C(=O)COC)c2)C2=C(CC(C)(C)CC2=O)Nc2n[nH]cc21 (centres unmarked) [Compound 865196] | > 5 | 0.1 to 1 | 
34 | CC[C@]1(c2ccccc2)C2=C(Nc3n[nH]cc31)[C@@H](C)C[C@H](C)C2=O [Compound 865198] | 1 to 5 | 0.1 to 1 | 
35 | CC[C@@]1(c2ccccc2)C2=C(Nc3n[nH]cc31)[C@H](C)C[C@@H](C)C2=O [Compound 865199] | > 5 | 1 to 5 | 
36 | CC[C@]1(c2ccccc2)C2=C(Nc3n[nH]cc31)[C@H](C)C[C@@H](C)C2=O [Compound 865201] | 0.1 to 1 | ≤ 0.1 | 
37 | CC[C@@]1(c2ccccc2)C2=C(Nc3n[nH]cc31)[C@@H](C)C[C@H](C)C2=O [Compound 865202] | > 5 | > 5 | 
38 | CCC1(c2cccc(C(F)(F)F)c2)C2=C(CCNC2=O)Nc2n[nH]cc21 (centres unmarked) [Compound 870263] |  |  | IC50 [1, 11]: > 5 µM; IC50 [2, 12]: 0.1 to 1 µM
39 | CCC1(c2cccc(N(C)c3ccncc3)c2)C2=C(CC(C)(C)CC2=O)Nc2n[nH]cc21 (centres unmarked) [Compound 874261] | > 5 | 0.1 to 1 | 
40 | CCC1(c2cccc(N(C)c3ccccn3)c2)C2=C(CC(C)(C)CC2=O)Nc2n[nH]cc21 (centres unmarked) [Compound 874294] | 0.1 to 1 | ≤ 0.1 | 
41 | CCC1(c2cccc(N(C)c3cccnc3)c2)C2=C(CC(C)(C)CC2=O)Nc2n[nH]cc21 (centres unmarked) [Compound 874298] | ≤ 0.1 | ≤ 0.1 | 
42 | CCC1(c2cccc(N(C)c3cccnc3)c2)C2=C(CC(C)(C)CC2=O)Nc2n[nH]cc21 (centres unmarked) [Compound 874299] | > 5 | 0.1 to 1 | 
43 | CCC1(c2cccc(N3CCOCC3)c2)C2=C(CC(C)(C)CC2=O)Nc2n[nH]c(C)c21 (centres unmarked) [Compound 874312] | ≤ 0.1 | ≤ 0.1 | 
44 | CCC1(COCc2ccccc2)C2=C(CC(C)(C)CC2=O)Nc2n[nH]cc21 (centres unmarked) [Compound 874313] |  |  | IC50 [1, 7]: 1 to 5 µM; IC50 [2, 8]: 1 to 5 µM
45 | CCC1(c2cccc(-c3ccncc3)c2)C2=C(CC(C)CC2=O)Nc2n[nH]cc21 (centres unmarked) [Compound 874315] | > 5 | 1 to 5 | 
46 | CCC1(c2cccc(-c3ccncc3)c2)C2=C(CC(C)CC2=O)Nc2n[nH]cc21 (centres unmarked) [Compound 874316] | 1 to 5 | 0.1 to 1 | 
47 | C[C@@H]1CCC[C@]12C1=C(CC(C)(C)CC1=O)Nc1n[nH]cc12 [Compound 874319] |  |  | IC50 [1, 7]: 1 to 5 µM; IC50 [2, 8]: 1 to 5 µM
48 | C[C@H]1CCC[C@@]12C1=C(CC(C)(C)CC1=O)Nc1n[nH]cc12 [Compound 874320] |  |  | IC50 [1, 7]: 1 to 5 µM; IC50 [2, 8]: 1 to 5 µM
49 | CC1(C)CC(=O)C2=C(C1)Nc1n[nH]c(CCC(F)(F)F)c1C21CCc2c(F)cccc21 (centres unmarked) [Compound 874323] | 1 to 5 | 1 to 5 | 
50 | CC1(C)CC(=O)C2=C(C1)Nc1n[nH]cc1C21CC2(CCCC2)C1 [Compound 874477] |  |  | IC50 [1, 11]: ≤ 0.1 µM; IC50 [1, 13]: 1 to 5 µM; IC50 [2, 12]: ≤ 0.1 µM; IC50 [2, 14]: 0.1 to 1 µM
51 | CC1(C)CC(=O)C2=C(C1)Nc1n[nH]cc1C21CCC1 [Compound 874509] |  |  | IC50 [1, 9]: 0.1 to 1 µM; IC50 [2, 10]: 0.1 to 1 µM
52 | CCC1(c2ccccc2)C2=C(CC(C)(C)CC2=O)Nc2n[nH]c(C(F)F)c21 (centres unmarked) [Compound 874510] | ≤ 0.1 | ≤ 0.1 | IC50 [1, 4]: 0.1 to 1 µM; IC50 [2, 6]: 0.1 to 1 µM
